Results taken from US8399480B2, “Hydroxymethyl pyrrolidines as beta 3 adrenergic receptor agonists” (Merck Sharp & Dohme Corp., priority 2008, dated 2013).
Like-named read-outs stand apart in the source and are kept apart here. One block for each compound: values may come before it.

What was measured:
β3AR = biological target: T1, β3AR (Rattus norvegicus, UniProt P26255); conditions: rats, intravenous administration, cited from earlier work
T1 construct: host or cells: rat, in vivo (bladder)

[1] = biological target: T2, human β3 adrenergic receptor (Homo sapiens, UniProt P13945); assay: Functional assay: cAMP production (LANCE TR-FRET) in CHO cells stably transfected with cloned β3 adrenergic receptor; assay type: cell-based
T2 construct: expressed in transfected cells; host or cells: Chinese hamster ovary (CHO) cells, stably transfected
T2 sequence (P13945 whole entry): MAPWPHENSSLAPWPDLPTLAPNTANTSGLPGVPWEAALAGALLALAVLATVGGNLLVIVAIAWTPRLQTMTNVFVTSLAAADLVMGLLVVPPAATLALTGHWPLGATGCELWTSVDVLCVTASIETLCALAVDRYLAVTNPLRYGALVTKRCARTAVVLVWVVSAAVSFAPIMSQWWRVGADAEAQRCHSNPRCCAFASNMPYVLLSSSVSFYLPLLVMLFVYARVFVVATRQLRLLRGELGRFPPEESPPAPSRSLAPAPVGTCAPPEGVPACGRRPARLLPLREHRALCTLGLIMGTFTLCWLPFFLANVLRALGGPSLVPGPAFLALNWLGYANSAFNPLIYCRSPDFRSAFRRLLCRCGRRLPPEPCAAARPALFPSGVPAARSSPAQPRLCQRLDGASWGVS
Outline: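 Agonist-stimulated cAMP in CHO cells stably expressing human β3 receptor, 6,000 cells per well in HBSS/HEPES/0.1% BSA with 0.6 mM IBMX, 30 min at room temperature. LANCE TR-FRET readout converted to cAMP via standard curve; maximal stimulation defined with isoproterenol.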

[2] = Table 4, human β3 functional activity, read-out: Human β Binding
[3] = Table 5, read-out: Human β3 Functional
[4] = Table 12, read-out: Human β3 Functional

T1 sequence (P26255 whole entry): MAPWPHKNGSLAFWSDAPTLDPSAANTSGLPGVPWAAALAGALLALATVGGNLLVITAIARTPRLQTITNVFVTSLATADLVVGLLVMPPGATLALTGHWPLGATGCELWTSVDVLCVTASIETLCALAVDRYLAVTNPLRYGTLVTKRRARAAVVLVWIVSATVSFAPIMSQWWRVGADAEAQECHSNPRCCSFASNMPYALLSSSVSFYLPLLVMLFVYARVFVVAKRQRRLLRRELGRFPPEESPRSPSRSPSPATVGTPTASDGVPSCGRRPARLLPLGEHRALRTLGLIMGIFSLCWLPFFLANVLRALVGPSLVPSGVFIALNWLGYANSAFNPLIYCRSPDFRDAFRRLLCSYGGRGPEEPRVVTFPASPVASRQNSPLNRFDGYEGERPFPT

SMILES: C[C@H](Cc1ccc2c(c1)OC(C(=O)[O-])(C(=O)[O-])O2)NC[C@H](O)c1cccc(Cl)c1.[Na+].[Na+] [CL316243]
bladder capacity (β3AR; cystometric studies, prolonged micturition interval without increasing residual urine volume): increases bladder capacity
bladder pressure (β3AR): reduces bladder pressure

EC50 [1, 2]: 101 to 1000 nM
SMILES: O=C(CC1CCCNC1=O)Nc1ccc(C[C@@H]2CC[C@H]([C@H](O)c3ccccc3)N2)cc1 (stereo partly shown) [Example 85]

EC50 [1, 3]: 1 to 10 nM
SMILES: CC(C(=O)Nc1ccc(C[C@@H]2CC[C@H]([C@H](O)c3ccccc3)N2)cc1)c1ccccn1 (single isomer, unassigned) [Example 205]

EC50 [1, 3]: 1 to 10 nM
SMILES: O=C(Nc1ccc(C[C@@H]2CC[C@H]([C@H](O)c3ccccc3)N2)cc1)C1CCc2sc(Br)nc21 (single isomer, unassigned) [Example 144]

EC50 [1, 3]: 11 to 100 nM
SMILES: CC(C(=O)Nc1ccc(C[C@@H]2CC[C@H]([C@H](O)c3ccccc3)N2)cc1)n1nncc1C(N)=O (single isomer, unassigned) [Example 198]

EC50 [1, 2]: 11 to 100 nM
SMILES: O=C(Nc1ccc(C[C@@H]2CC[C@H]([C@H](O)c3ccccc3)N2)cc1)c1ccccc1-c1nnn[nH]1 [Example 13]

EC50 [1, 4]: < 1 nM
SMILES: O=C(Nc1ccc(C[C@@H]2CC[C@H]([C@H](O)c3ccc(F)c(F)c3)N2)cc1)[C@@H]1CCc2scnc21 [Example 290]

EC50 [1, 4]: 11 to 100 nM
SMILES: Nc1nc2c(s1)CCC2C(=O)Nc1ccc(CC2CCC(C(O)c3ccc(F)c(F)c3)N2)cc1 (single isomer, unassigned) [Example 291]

EC50 ([1]; Table 9, read-out: Human β^3 Functional): < 1 nM
SMILES: CC(NC(=O)c1cc[nH]n1)C(=O)Nc1ccc(C[C@@H]2CC[C@H]([C@H](O)c3ccccc3)N2)cc1 (stereo partly shown) [Example 271]

EC50 ([1]; Table 7, β3AR-cAMP, read-out: Human β3 Functional): 101 to 1000 nM
SMILES: O=S(=O)(Nc1ccc(C[C@@H]2CC[C@H]([C@H](O)c3ccccc3)N2)cc1)c1cccc2ccccc12 [Example 235]

EC50 ([1]; Table 11, read-out: Human β3 Functional): < 1 nM
SMILES: O=C(Nc1ccc(C[C@@H]2CC[C@H]([C@H](O)c3ccc(F)cc3)N2)cc1)[C@@H]1CCc2scnc21 [Example 284]

EC50 [1, 3]: 101 to 1000 nM
SMILES: O=C(Nc1ccc(C[C@@H]2CC[C@H]([C@H](O)c3ccccc3)N2)cc1)C1CCc2sc(-c3ccc(F)cc3)nc21 (single isomer, unassigned) [Example 123]
